One series concerns Amaranthus retroflexus. The experiment in a line: Pot test, herbicide sprayed on the soil surface after planting one-node stem cuttings: herbicidal efficacy. The format is in vivo. The note with it: Example 5; cuttings treated with strobilurin fungicides (kresoxim-methyl, azoxystrobin etc.); soil surface spray on day of planting; four weeks after application. The procedure: (§1) Stem cuttings of sugar cane, 30 cm to 40 cm long, are placed in wet soil to stimulate germination. Stem cuttings on which a bud grows to about 1 cm long are selected and the stem cuttings are cut to have one node and a length of 3 cm. Plastic pots are filled with soil and Amaranthus retroflexus is seeded therein. The stem cuttings of sugar cane are planted in the soil in the pots at a depth of 2 cm. […] The test pots are then placed in a greenhouse.
(§2) The herbicidal efficacy and phytotoxicity are determined four weeks after the application of the herbicides.
as §1, with “3 cm. The stem cuttings are treated with clothianidin, thiamethoxam, imidacloprid, dinotefuran, nitenpyram, acetamiprid, or thiacloprid. Plastic pots” for “3 cm. Plastic pots”, “sugar cane treated with the pesticides are planted” for “sugar cane are planted”
(§3) Stem cuttings of sugar cane, 30 cm to 40 cm long, are placed in wet soil to stimulate germination. Stem cuttings on which a bud grows to about 1 cm long are selected and the stem cuttings are cut to have one node and a length of 3 cm. The stem cuttings are treated with kresoxim-methyl, azoxystrobin, trifloxystrobin, fluoxastrobin, picoxystrobin, pyraclostrobin, dimoxystrobin, pyribencarb, metominostrobin, orysastrobin, enestrobin, pyraoxystrobin, or pyrametostrobin. Plastic pots are filled with soil and Amaranthus retroflexus is seeded therein. The stem cuttings of sugar cane treated with the fungicides are planted in the soil in the pots at a depth of 2 cm. […] The test pots are then placed in a greenhouse. The herbicidal efficacy and phytotoxicity are determined four weeks after the application of the herbicides.
Stem cuttings of sugar cane, 30 cm to 40 cm long, are placed in wet soil to stimulate germination. Stem cuttings on which a bud grows to about 1 cm long are selected and the stem cuttings are cut to have one node and a length of 3 cm. The stem cuttings are treated with azaconazole, bitertanol, bromuconazole, cyproconazole, difenoconazole, diniconazole, epoxiconazole, fenbuconazole, fluquinoconazole, flusilazole, flutriafol, hexaconazole, imibenconazole, ipconazole, metconazole, myclobutanil, penconazole, propiconazole, prothioconazole, simeconazole, tebuconazole, tetraconazole, triadimenol, triticonazole, fenarimol, nuarimol, pyrifenox, imazalil, oxpoconazole fumarate, peforazoate, prochloraz, or triflumizole. Plastic pots are filled with soil and Amaranthus retroflexus is seeded therein. The stem cuttings of sugar cane treated with the fungicides are planted in the soil in the pots at a depth of 2 cm. […] The test pots are then placed in a greenhouse. […]

A further series relates to sugar cane. The experiment in a line: Pot test, herbicide sprayed on the soil surface after planting one-node stem cuttings: phytotoxicity. How it is done: as §1, §2
as §1, with “3 cm. The stem cuttings are treated with clothianidin, thiamethoxam, imidacloprid, dinotefuran, nitenpyram, acetamiprid, or thiacloprid. Plastic pots” for “3 cm. Plastic pots”, “sugar cane treated with the pesticides are planted” for “sugar cane are planted”
as §3
Stem cuttings of sugar cane, 30 cm to 40 cm long, are placed in wet soil to stimulate germination. Stem cuttings on which a bud grows to about 1 cm long are selected and the stem cuttings are cut to have one node and a length of 3 cm. The stem cuttings are treated with azaconazole, bitertanol, bromuconazole, cyproconazole, difenoconazole, diniconazole, epoxiconazole, fenbuconazole, fluquinoconazole, flusilazole, flutriafol, hexaconazole, imibenconazole, ipconazole, metconazole, myclobutanil, penconazole, propiconazole, prothioconazole, simeconazole, tebuconazole, tetraconazole, triadimenol, triticonazole, fenarimol, nuarimol, pyrifenox, imazalil, oxpoconazole fumarate, peforazoate, prochloraz, or triflumizole. Plastic pots are filled with soil and Amaranthus retroflexus is seeded therein. The stem cuttings of sugar cane treated with the fungicides are planted in the soil in the pots at a depth of 2 cm. […] The test pots are then placed in a greenhouse.
Stem cuttings of sugar cane, 30 cm to 40 cm long, are placed in wet soil to stimulate germination. Stem cuttings on which a bud grows to about 1 cm long are selected and the stem cuttings are cut to have one node and a length of 3 cm. The stem cuttings are treated with metalaxyl or metalaxyl-M. Plastic pots are filled with soil and Amaranthus retroflexus is seeded therein. The stem cuttings of sugar cane are planted in the soil in the pots at a depth of 2 cm. […] The test pots are then placed in a greenhouse.

Setting [1] is: Example 5, cuttings treated with strobilurin fungicides (kresoxim-methyl, azoxystrobin etc.), soil surface spray on day of planting, four weeks after application.

Regarding `CCc1cccc(C)c1N(C(=O)CCl)[C@@H](C)COC` [S-metolachlor], the herbicidal efficacy result in the series on Amaranthus retroflexus is “the control effect against the weed can be observed”. In addition, the phytotoxicity entry in the series with sugar cane (setting [1]) is “no phytotoxicity problematic to sugar cane is observed”.

Turning to `CCc1cccc(CC)c1N(COC)C(=O)CCl` [alachlor], in the series with Amaranthus retroflexus, the herbicidal efficacy result was “the control effect against the weed can be observed”. The phytotoxicity result with sugar cane (setting [1]) is reported as “no phytotoxicity problematic to sugar cane is observed”.

For the molecule `CCNc1nc(NC(C)C)nc(SC)n1` [ametryn], in the series with Amaranthus retroflexus, the herbicidal efficacy entry is recorded as “the control effect against the weed can be observed”. Also, the phytotoxicity entry in the series on sugar cane (in vivo) is recorded as “no phytotoxicity problematic to sugar cane is observed”.

In the case of `CC(C)c1nn(C(=O)NC(C)(C)C)c(=O)n1N` [amicarbazone], the herbicidal efficacy result in the series on Amaranthus retroflexus is listed as “the control effect against the weed can be observed”. Besides, the phytotoxicity result in the series on sugar cane (setting [1]) is “no phytotoxicity problematic to sugar cane is observed”.

As to `CCNc1nc(Cl)nc(NC(C)C)n1` [atrazine], the herbicidal efficacy entry in the series on Amaranthus retroflexus is on record as “the control effect against the weed can be observed”. The phytotoxicity result in the series with sugar cane (setting [1]) is “no phytotoxicity problematic to sugar cane is observed”.

For `CC1(C)CON(Cc2ccccc2Cl)C1=O` [clomazon], the herbicidal efficacy entry in the series with Amaranthus retroflexus is given as “the control effect against the weed can be observed”.

On to `COc1c(Cl)ccc(Cl)c1C(=O)O.NCCOCCO` [dicamba-diglycolamine], for which the herbicidal efficacy entry in the series with Amaranthus retroflexus is reported as “the control effect against the weed can be observed”. In addition, in the series on sugar cane (setting [1]), the phytotoxicity entry is “no phytotoxicity problematic to sugar cane is observed”.

Turning to `CNC.COc1c(Cl)ccc(Cl)c1C(=O)O` [dicamba-dimethylamine], in the series with Amaranthus retroflexus, the herbicidal efficacy result is listed as “the control effect against the weed can be observed”. For the same molecule, the phytotoxicity result in the series on sugar cane (setting [1]) is on record as “no phytotoxicity problematic to sugar cane is observed”.

`COc1c(Cl)ccc(Cl)c1C(=O)[O-].[K+]` [dicamba-potassium]: the herbicidal efficacy entry with Amaranthus retroflexus was “the control effect against the weed can be observed”. In the series with sugar cane (setting [1]), the phytotoxicity result was “no phytotoxicity problematic to sugar cane is observed”.

With `COc1c(Cl)ccc(Cl)c1C(=O)[O-].[Na+]` [dicamba-sodium], in the series with Amaranthus retroflexus, the herbicidal efficacy result is “the control effect against the weed can be observed”. In addition, the phytotoxicity result in the series on sugar cane (setting [1]) is recorded as “no phytotoxicity problematic to sugar cane is observed”.

Take `COc1c(Cl)ccc(Cl)c1C(=O)O` [dicamba]: the herbicidal efficacy entry with Amaranthus retroflexus is “the control effect against the weed can be observed”. Further, in the series on sugar cane (setting [1]), the phytotoxicity result is given as “no phytotoxicity problematic to sugar cane is observed”.

For `CN(C)C(=O)Nc1ccc(Cl)c(Cl)c1` [diuron], the herbicidal efficacy result with Amaranthus retroflexus is recorded as “the control effect against the weed can be observed”. For the same molecule, the phytotoxicity result in the series with sugar cane (setting [1]) is given as “no phytotoxicity problematic to sugar cane is observed”.

`CCOc1ccccc1OS(=O)(=O)NC(=O)Nc1nc(OC)cc(OC)n1` [ethoxysulfuron]: in the series on Amaranthus retroflexus, the herbicidal efficacy entry is reported as “the control effect against the weed can be observed”. Moreover, the phytotoxicity result in the series on sugar cane (in vivo) is given as “no phytotoxicity problematic to sugar cane is observed”.

For the molecule `COC(=O)c1c(Cl)nn(C)c1S(=O)(=O)NC(=O)Nc1nc(OC)cc(OC)n1` [halosulfuron-methyl], the herbicidal efficacy result in the series on Amaranthus retroflexus was “the control effect against the weed can be observed”. For the same molecule, the phytotoxicity result with sugar cane (setting [1]) is given as “no phytotoxicity problematic to sugar cane is observed”.

As for `CN(C)c1nc(=O)n(C2CCCCC2)c(=O)n1C` [hexazinone], the herbicidal efficacy result in the series on Amaranthus retroflexus is listed as “the control effect against the weed can be observed”. In addition, in the series on sugar cane (in vivo), the phytotoxicity entry was “no phytotoxicity problematic to sugar cane is observed”.

For the molecule `Cc1cnc(C2=NC(=O)C(C)(C(C)C)N2)c(C(=O)O)c1` (centres unmarked) [imazapic], in the series with Amaranthus retroflexus, the herbicidal efficacy entry is “the control effect against the weed can be observed”. In the series with sugar cane (in vivo), the phytotoxicity entry is given as “no phytotoxicity problematic to sugar cane is observed”.

For the molecule `COC(=O)c1ccc(I)cc1S(=O)(=O)[N-]C(=O)Nc1nc(C)nc(OC)n1.[Na+]` [iodosulfuron-methyl-sodium], the herbicidal efficacy entry with Amaranthus retroflexus is “the control effect against the weed can be observed”. For the same molecule, the phytotoxicity entry with sugar cane (setting [1]) is recorded as “no phytotoxicity problematic to sugar cane is observed”.

`CS(=O)(=O)c1cc(C(F)(F)F)ccc1C(=O)c1cnoc1C1CC1` [isoxaflutole]: the herbicidal efficacy entry in the series with Amaranthus retroflexus is recorded as “the control effect against the weed can be observed”. For the same molecule, the phytotoxicity result in the series on sugar cane (in vivo) is listed as “no phytotoxicity problematic to sugar cane is observed”.

With `CS(=O)(=O)c1ccc(C(=O)C2C(=O)CCCC2=O)c([N+](=O)[O-])c1` [mesotrione], in the series with Amaranthus retroflexus, the herbicidal efficacy entry was “the control effect against the weed can be observed”. Besides, the phytotoxicity entry with sugar cane (setting [1]) is “no phytotoxicity problematic to sugar cane is observed”.

As for `CCc1cccc(C)c1N(C(=O)CCl)C(C)COC` (centres unmarked) [metolachlor], the herbicidal efficacy entry in the series on Amaranthus retroflexus is given as “the control effect against the weed can be observed”. Besides, in the series with sugar cane (setting [1]), the phytotoxicity entry was “no phytotoxicity problematic to sugar cane is observed”.

On to `CSc1nnc(C(C)(C)C)c(=O)n1N` [metribuzin], for which the herbicidal efficacy result in the series on Amaranthus retroflexus is “the control effect against the weed can be observed”. For the same molecule, the phytotoxicity entry with sugar cane (setting [1]) was “no phytotoxicity problematic to sugar cane is observed”.

Regarding `CCC(CC)Nc1c([N+](=O)[O-])cc(C)c(C)c1[N+](=O)[O-]` [pendimethalin], the herbicidal efficacy entry in the series on Amaranthus retroflexus was “the control effect against the weed can be observed”. Moreover, in the series on sugar cane (setting [1]), the phytotoxicity entry is given as “no phytotoxicity problematic to sugar cane is observed”.

For the molecule `CCNc1nc(Cl)nc(NCC)n1` [simazine], the herbicidal efficacy entry in the series on Amaranthus retroflexus was “the control effect against the weed can be observed”. In the series on sugar cane (setting [1]), the phytotoxicity result was “no phytotoxicity problematic to sugar cane is observed”.

As to `CNC(=O)N(C)c1nnc(C(C)(C)C)s1` [tebuthiuron], the herbicidal efficacy entry in the series with Amaranthus retroflexus is “the control effect against the weed can be observed”. The phytotoxicity entry in the series on sugar cane (setting [1]) is “no phytotoxicity problematic to sugar cane is observed”.

As for `COc1cc(OC)nc(NC(=O)[N-]S(=O)(=O)c2ncccc2OCC(F)(F)F)n1.[Na+]` [trifloxysulfuron-sodium], the herbicidal efficacy result in the series on Amaranthus retroflexus is listed as “the control effect against the weed can be observed”. In the series on sugar cane (setting [1]), the phytotoxicity result was “no phytotoxicity problematic to sugar cane is observed”.

Consider `CCCN(CCC)c1c([N+](=O)[O-])cc(C(F)(F)F)cc1[N+](=O)[O-]` [trifluralin], for which the herbicidal efficacy entry in the series on Amaranthus retroflexus is given as “the control effect against the weed can be observed”. In addition, the phytotoxicity result with sugar cane (setting [1]) is given as “no phytotoxicity problematic to sugar cane is observed”.

Take bicyclopyrone: in the series on Amaranthus retroflexus, the herbicidal efficacy entry is recorded as “the control effect against the weed can be observed”. The phytotoxicity entry in the series with sugar cane (setting [1]) is on record as “no phytotoxicity problematic to sugar cane is observed”.

The values are drawn from US20140329681A1, “METHOD FOR CONTROLLING WEEDS IN SUGAR CANE FIELD” (SUMITOMO CHEMICAL COMPANY, LIMITED, priority 2011, published 2014).
